# Data reported in patent US11000033B2, “Ketone or oxime compound, and herbicide” (NISSAN CHEMICAL CORPORATION, priority 2014, dated 2021).
# How the values were obtained:
# Assay type in all cases: in vivo
# [1] = system: Galium spurium; assay: Test Example 5: herbicidal effect by foliage application, plastic box (symbol Q); details: 320 g/ha, 3 weeks after application
# Method in brief: (§1)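 Sowing in sterilized diluvial soil, 14 days' greenhouse growth at 25° C. to 30° C., then uniform small-sprayer foliar application of aqueous emulsion dilution; plants scored three weeks afterwards.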
# [2] = system: rice plant; assay: Test Example 5: effect on crop by foliage application, plastic box (symbol b); details: 320 g/ha, 3 weeks after application
# Method in brief: (§2)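 Diluvial soil, sterilized and boxed (21 × 13 × 7 cm), received spot-sown seed covered by about 1.5 cm soil; plants were then greenhouse-grown at 25–30° C.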
# [3] = system: rapeseed; assay: Test Example 5: effect on crop by foliage application, plastic box (symbol g); details: 320 g/ha, 3 weeks after application
# Method in brief: as §2
# [4] = system: Digitaria ciliaris; assay: Test Example 5: herbicidal effect by foliage application, plastic box (symbol F); details: 320 g/ha, 3 weeks after application
# Method in brief: as §1
# [5] = system: Echinochloa crus-galli var. crus-galli; assay: Test Example 5: herbicidal effect by foliage application, plastic box (symbol H); details: 320 g/ha, 3 weeks after application
# Method in brief: as §1
# [6] = system: Echinochloa crus-galli var. crus-galli; assay: Test Example 3: herbicidal effect by foliage application, Wagner pot (symbol H); details: application herbicide amount 320 g/ha, Table 24
# Method in brief: (§3)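 Rating at 3 weeks post-spray, by defined criteria. Treatment: emulsion diluted with water to a predetermined amount, applied evenly to foliage of 14-day-old plants raised in alluvial soil flooded 0.1–0.5 cm deep at 25–30 °C, rice co-sown.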
# [7] = system: Avena fatua; assay: Test Example 5: herbicidal effect by foliage application, plastic box (symbol I); details: 320 g/ha, 3 weeks after application
# Method in brief: as §1
# [8] = system: Leptochloa chinensis; assay: Test Example 3: herbicidal effect by foliage application, Wagner pot (symbol D); details: application herbicide amount 320 g/ha, Table 24
# Method in brief: as §3
# [9] = system: Amaranthus retroflexus; assay: Test Example 5: herbicidal effect by foliage application, plastic box (symbol N); details: 320 g/ha, 3 weeks after application
# Method in brief: as §1
# [10] = system: Setaria viridis; assay: Test Example 5: herbicidal effect by foliage application, plastic box (symbol G); details: 320 g/ha, 3 weeks after application
# Method in brief: as §1
# [11] = system: corn; assay: Test Example 5: effect on crop by foliage application, plastic box (symbol c); details: 320 g/ha, 3 weeks after application
# Method in brief: as §2
# [12] = system: Monochoria vaginalis; assay: Test Example 2: herbicidal activity, application during weed generation in submerged conditions (symbol C); details: Table 23; application herbicide amount 320 g/ha; grade 0-5 by criteria of Test Example 1
# Method in brief: (§4)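 Flooded-soil post-emergence test: emulsion of compound, water-diluted to target rate, applied to paddy water surface at 1–2 leaf stage of mixed-sown weeds (alluvial soil, 4 cm water, 25–30° C. greenhouse); visual rating 3 weeks after application.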
# [13] = system: Stellaria media; assay: Test Example 5: herbicidal effect by foliage application, plastic box (symbol P); details: 320 g/ha, 3 weeks after application
# Method in brief: as §1
# [14] = system: beet; assay: Test Example 5: effect on crop by foliage application, plastic box (symbol f); details: 320 g/ha, 3 weeks after application
# Method in brief: as §2
# [15] = system: directly sowed rice plant; assay: Test Example 3: effect on crop by foliage application, Wagner pot (symbol b); details: application herbicide amount 320 g/ha, Table 24
# Method in brief: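 Steps: fill a 1/10000-are Wagner pot with alluvial soil; add water and mix to submerge at 0.1–0.5 cm depth; sow rice plus Echinochloa crus-galli var. crus-galli, Leptochloa chinensis and Cyperus difformis; grow in a 25–30 °C greenhouse.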
# [16] = system: Apera spica-venti; assay: Test Example 5: herbicidal effect by foliage application, plastic box (symbol L); details: 320 g/ha, 3 weeks after application
# Method in brief: as §1
# [17] = system: wheat; assay: Test Example 5: effect on crop by foliage application, plastic box (symbol e); details: 320 g/ha, 3 weeks after application
# Method in brief: as §2
# [18] = system: Veronica persica; assay: Test Example 5: herbicidal effect by foliage application, plastic box (symbol R); details: 320 g/ha, 3 weeks after application
# Method in brief: as §1
# [19] = system: Alopecurus myosuroides; assay: Test Example 5: herbicidal effect by foliage application, plastic box (symbol J); details: 320 g/ha, 3 weeks after application
# Method in brief: as §1
# [20] = system: Echinochloa oryzacola Vasing.; assay: Test Example 2: herbicidal activity, application during weed generation in submerged conditions (symbol A); details: Table 23; application herbicide amount 320 g/ha; grade 0-5 by criteria of Test Example 1
# Method in brief: as §4
# [21] = system: Chenopodium album; assay: Test Example 5: herbicidal effect by foliage application, plastic box (symbol O); details: 320 g/ha, 3 weeks after application
# Method in brief: as §1
# [22] = system: soybean; assay: Test Example 5: effect on crop by foliage application, plastic box (symbol d); details: 320 g/ha, 3 weeks after application
# Method in brief: as §2
# [23] = system: Scirpus juncoides; assay: Test Example 2: herbicidal activity, application during weed generation in submerged conditions (symbol B); details: Table 23; application herbicide amount 320 g/ha; grade 0-5 by criteria of Test Example 1
# Method in brief: as §4
# [24] = system: Abutilon theophrasti; assay: Test Example 5: herbicidal effect by foliage application, plastic box (symbol M); details: 320 g/ha, 3 weeks after application
# Method in brief: as §1
# [25] = system: Lolium multiflorum Lam.; assay: Test Example 5: herbicidal effect by foliage application, plastic box (symbol K); details: 320 g/ha, 3 weeks after application
# Method in brief: as §1
# [26] = system: Cyperus difformis; assay: Test Example 3: herbicidal effect by foliage application, Wagner pot (symbol E); details: application herbicide amount 320 g/ha, Table 24
# Method in brief: as §3
smiles,measurement,setting,value
COc1cc(Br)cc(C)c1C1=C(O)CC(C(C)C(C)=O)C1=O (centres unmarked) [7-031],"Q: Galium spurium, herbicidal effect grade",[1],0 (Herbicidal ratio of 5% or lower (almost no effect))
same,"b: directly sowed rice plant, effect on crop grade",[2],4 (Herbicidal ratio of 70% or higher and lower than 90%)
same,"g: rapeseed, effect on crop grade",[3],0 (Herbicidal ratio of 5% or lower (almost no effect))
same,"F: Digitaria ciliaris, herbicidal effect grade",[4],4 (Herbicidal ratio of 70% or higher and lower than 90%)
same,"H: Echinochloa crus-galli var. crus-galli, herbicidal effect grade",[5],5 (Herbicidal ratio of 90% or more (almost completely withered))
same,H (Echinochloa crus-galli var. crus-galli) herbicidal effect grade,[6],4 (Herbicidal ratio of 70% or higher and lower than 90%)
same,"I: Avena fatua, herbicidal effect grade",[7],3 (Herbicidal ratio of 40% or higher and lower than 70%)
same,D (Leptochloa chinensis) herbicidal effect grade,[8],5 (Herbicidal ratio of 90% or more (almost completely withered))
same,"N: Amaranthus retroflexus, herbicidal effect grade",[9],0 (Herbicidal ratio of 5% or lower (almost no effect))
same,"G: Setaria viridis, herbicidal effect grade",[10],5 (Herbicidal ratio of 90% or more (almost completely withered))
same,"c: corn, effect on crop grade",[11],1 (Herbicidal ratio of 5% or higher and lower than 20%)
same,"Herbicidal effect grade, C: Monochoria vaginalis",[12],2 (Herbicidal ratio of 20% or higher and lower than 40%)
same,"P: Stellaria media, herbicidal effect grade",[13],0 (Herbicidal ratio of 5% or lower (almost no effect))
same,"f: beet, effect on crop grade",[14],0 (Herbicidal ratio of 5% or lower (almost no effect))
same,b (directly sowed rice plant) effect on crop grade,[15],5 (Herbicidal ratio of 90% or more (almost completely withered))
same,"L: Apera spica-venti, herbicidal effect grade",[16],5 (Herbicidal ratio of 90% or more (almost completely withered))
same,"e: wheat, effect on crop grade",[17],0 (Herbicidal ratio of 5% or lower (almost no effect))
same,"R: Veronica persica, herbicidal effect grade",[18],0 (Herbicidal ratio of 5% or lower (almost no effect))
same,"J: Alopecurus myosuroides, herbicidal effect grade",[19],3 (Herbicidal ratio of 40% or higher and lower than 70%)
same,"Herbicidal effect grade, A: Echinochloa oryzacola Vasing.",[20],0 (Herbicidal ratio of 5% or lower (almost no effect))
same,"O: Chenopodium album, herbicidal effect grade",[21],0 (Herbicidal ratio of 5% or lower (almost no effect))
same,"d: soybean, effect on crop grade",[22],0 (Herbicidal ratio of 5% or lower (almost no effect))
same,"Herbicidal effect grade, B: Scirpus juncoides",[23],1 (Herbicidal ratio of 5% or higher and lower than 20%)
same,"M: Abutilon theophrasti, herbicidal effect grade",[24],0 (Herbicidal ratio of 5% or lower (almost no effect))
same,"K: Lolium multiflorum Lam., herbicidal effect grade",[25],5 (Herbicidal ratio of 90% or more (almost completely withered))
same,E herbicidal effect grade,[26],3 (Herbicidal ratio of 40% or higher and lower than 70%)
